How the values were obtained:
[1] = test system: bacteria strains that produce NDM; assay: Amperometric detection in blood culture; assay type: cell-based; conditions: CF3 6.0 mM, HMRZ-86 1.2 mM
Experimental: (§1) The possibility of the beta-lactamase substrate compounds to detect bacteria strains producing different beta-lactamases was tested for the reference HMRZ-86 of example 1 (at 1.2 mM) and the beta-lactamase substrate compound with R being 2-nitro-4-cyano of Example 1 (at 2.4 mM). […] Consequently, amperometric voltammetry of the negative control with ATCC should give an oxidation current of 0 nA for the measurement to be valid.
(§2) The beta-lactamase with group β being CF3 (6.0 mM), as well as the reference HMRZ-86 (1.2 mM) were also tested with blood cultures comprising bacteria strains producing the carbapenemase KPC type, the metallo-beta-lactamase VIM type and the metallo-beta-lactamase NDM type, as well as a blood culture comprising no bacteria strains producing beta-lactamases (negative control ATCC).

[2] = test system: bacteria strains that produce VIM type; assay: Amperometric detection in blood culture; assay type: cell-based; conditions: CF3 6.0 mM, HMRZ-86 1.2 mM
Experimental: as §1, §2

[3] = test system: bacteria strains producing the carbapenemase KPC type; assay: Amperometric detection in blood culture; assay type: cell-based; conditions: CF3 6.0 mM, HMRZ-86 1.2 mM
Experimental: as §2

CTXM = assay: Amperometric detection of beta-lactamase type producing bacteria strains; assay type: cell-based; conditions: 6.0 mM substrate, HMRZ-86 1.2 mM; qualitative
Experimental: (§3) The possibility to detect different beta-lactamase type producing bacteria strains was also tested. As reference, a reference medium comprising 1.2 mM beta-lactamase substrate compound HMRZ-86 was prepared as well.

OXA-40 = assay: as above; assay type: cell-based; conditions: 6.0 mM substrate, HMRZ-86 1.2 mM; qualitative
Experimental: as §3

OXA-48 [4] = assay: as above; assay type: cell-based; conditions: 6.0 mM substrate, HMRZ-86 1.2 mM; qualitative
Experimental: as §3

OXA-58 = assay: as above; assay type: cell-based; conditions: 6.0 mM substrate, HMRZ-86 1.2 mM; qualitative
Experimental: as §3

CTX-M-15 = CTX-M-15 (Escherichia coli, UniProt Q9EXV5); assay: Reactivity with recombinant enzyme, amperometric; assay type: biochemical; conditions: class A ESBL, protein; CF3 compound 2.4 mM, HMRZ-86 1.2 mM; 10 minutes at 37° C.
KPC-3 = KPC-3 (Klebsiella pneumoniae, UniProt Q9F663, H272Y); assay: Reactivity with recombinant enzyme, amperometric; assay type: biochemical; conditions: class A carbapenemase, protein; CF3 compound 2.4 mM, HMRZ-86 1.2 mM; 10 minutes at 37° C.
KPC-31 = KPC-31 (Klebsiella pneumoniae, UniProt Q9F663, D178Y/H272Y); assay: Reactivity with recombinant enzyme, amperometric; assay type: biochemical; conditions: class A carbapenemase, protein, CF3 compound 2.4 mM, HMRZ-86 1.2 mM, 10 minutes at 37° C.
KPC-33 = KPC-33 (Klebsiella pneumoniae, UniProt Q9F663, D178Y); assay: Reactivity with recombinant enzyme, amperometric; assay type: biochemical; conditions: class A carbapenemase, protein; CF3 compound 2.4 mM, HMRZ-86 1.2 mM; 10 minutes at 37° C.
IMP-1 = IMP-1 (Serratia marcescens, UniProt P52699); assay: Reactivity with recombinant enzyme, amperometric; assay type: biochemical; conditions: class B metallo-beta-lactamase, protein; CF3 compound 2.4 mM, HMRZ-86 1.2 mM; 10 minutes at 37° C.
IMP-4 = assay: Reactivity with recombinant enzyme, amperometric; assay type: biochemical; conditions: class B metallo-beta-lactamase, protein; CF3 compound 2.4 mM, HMRZ-86 1.2 mM; 10 minutes at 37° C.
IMP-14 = assay: Reactivity with recombinant enzyme, amperometric; assay type: biochemical; conditions: class B metallo-beta-lactamase, protein; CF3 compound 2.4 mM, HMRZ-86 1.2 mM; 10 minutes at 37° C.
IMP-16 = assay: Reactivity with recombinant enzyme, amperometric; assay type: biochemical; conditions: class B metallo-beta-lactamase, protein; CF3 compound 2.4 mM, HMRZ-86 1.2 mM; 10 minutes at 37° C.
IMP-18 = assay: Reactivity with recombinant enzyme, amperometric; assay type: biochemical; conditions: class B metallo-beta-lactamase, protein; CF3 compound 2.4 mM, HMRZ-86 1.2 mM; 10 minutes at 37° C.
IMP-61 = assay: Reactivity with recombinant enzyme, amperometric; assay type: biochemical; conditions: class B metallo-beta-lactamase, protein; CF3 compound 2.4 mM, HMRZ-86 1.2 mM; 10 minutes at 37° C.
NDM-1 = NDM-1 (Klebsiella pneumoniae, UniProt C7C422); assay: Reactivity with recombinant enzyme, amperometric; assay type: biochemical; conditions: class B metallo-beta-lactamase, protein; CF3 compound 2.4 mM, HMRZ-86 1.2 mM; 10 minutes at 37° C.
VIM-11 = assay: Reactivity with recombinant enzyme, amperometric; assay type: biochemical; conditions: class B metallo-beta-lactamase, protein; CF3 compound 2.4 mM, HMRZ-86 1.2 mM; 10 minutes at 37° C.
VIM-13 = assay: Reactivity with recombinant enzyme, amperometric; assay type: biochemical; conditions: class B metallo-beta-lactamase, protein; CF3 compound 2.4 mM, HMRZ-86 1.2 mM; 10 minutes at 37° C.
OXA-23 = OXA-23 (Acinetobacter baumannii, UniProt Q9L4P2); assay: Reactivity with recombinant enzyme, amperometric; assay type: biochemical; conditions: class D carbapenemase, protein; CF3 compound 2.4 mM, HMRZ-86 1.2 mM; 10 minutes at 37° C.
OXA-48 [5] = assay: Reactivity with recombinant enzyme, amperometric; assay type: biochemical; conditions: class D carbapenemase, protein; CF3 compound 2.4 mM, HMRZ-86 1.2 mM; 10 minutes at 37° C.
OXA-51 = assay: Reactivity with recombinant enzyme, amperometric; assay type: biochemical; conditions: class D carbapenemase, protein; CF3 compound 2.4 mM, HMRZ-86 1.2 mM; 10 minutes at 37° C.
OXA-143 = assay: Reactivity with recombinant enzyme, amperometric; assay type: biochemical; conditions: class D carbapenemase, protein; CF3 compound 2.4 mM, HMRZ-86 1.2 mM; 10 minutes at 37° C.
OXA-163 = conditions: class D carbapenemase, protein; CF3 compound 2.4 mM, HMRZ-86 1.2 mM; 10 minutes at 37° C.
[6] = NMR stability study in relation to a 22 mM succinate buffer reference; assay type: physicochemical
Experimental: The stability of the beta-lactamase substrate compounds over time at different temperatures was tested the reference HMRZ-86 of example 1 (at 1.2 mM) and the beta-lactamase substrate compound with R being 2-nitro-4-cyano of Example 1 (at 2.4 mM).
The stability of both beta-lactamase substrate compounds was also tested in relation to a 22 mM succinate buffer reference. […] Contrary to the dimethylformamide (DMF) reference, the degradation in relation to the succinate buffer was similar for both substrate compounds, with the first degradation starting after 2 weeks at both temperatures.

SMILES	detection (oxidation current) [1]	detection (oxidation current) [2]	detection (oxidation current) [3]	detection (oxidation current) (CTXM)	detection (oxidation current) (OXA-40)	detection (oxidation current) (OXA-48 [4])	detection (oxidation current) (OXA-58)	reactivity (detection) (CTX-M-15)	reactivity (detection) (KPC-3)	reactivity (detection) (KPC-33)	reactivity (detection) (IMP-1)	reactivity (detection) (IMP-4)	reactivity (detection) (IMP-14)	reactivity (detection) (IMP-16)	reactivity (detection) (IMP-18)	reactivity (detection) (IMP-61)	reactivity (detection) (NDM-1)	reactivity (detection) (VIM-11)	reactivity (detection) (VIM-13)	reactivity (detection) (OXA-23)	other results
N#Cc1ccc(C=CC2=C(C(=O)O)N3C(=O)C(NC(=O)C(F)(F)F)C3SC2)cc1 (centres unmarked) [CF3]	do not detect	capable of detecting	capable of detecting	capable of detecting	capable of detecting	capable of detecting	capable of detecting	Detected	Detected	Detected	Detected	Detected	Detected	Detected	Detected	Detected	Detected	Detected	Detected	Detected	reactivity (detection) (KPC-31; listed as CF3/4-cyanophenyl): not detected; reactivity (detection) (KPC-31; listed as CF3/4-cyanostyryl): Not detected; reactivity (detection) (OXA-48 [5]): Detected; reactivity (detection) (OXA-51): Detected; reactivity (detection) (OXA-143): Detected; reactivity (detection) (OXA-163): Detected
CC(C)(ON=C(C(=O)N[C@@H]1C(=O)N2C(C(=O)O)=C(C=Cc3ccc([N+](=O)[O-])cc3[N+](=O)[O-])CS[C@H]12)c1csc(N)n1)C(=O)O.O=C(O)C(F)(F)F [HMRZ-86, reference compound]	do not detect	capable of detecting	capable of detecting	capable of detecting	does not detect	capable of detecting	does not detect	Detected	Detected	Detected	Detected	Detected	Detected	Detected	Detected	Detected	Detected	Detected	Detected	Not detected	time at which the first degradation starts ([6]; 4° C.): 2 weeks; time at which the first degradation starts ([6]; 20° C.): 2 weeks; reactivity (detection) (KPC-31): Detected; reactivity (detection) (OXA-48 [5]): Detected; reactivity (detection) (OXA-51): Not detected; reactivity (detection) (OXA-143): Detected; reactivity (detection) (OXA-163): Detected
